Values of other authors, collected in patent US20110086074A1, “COMBINATIONS OF NIACIN AND AN OXICAM” (DR. REDDY'S LABORATORIES LTD., priority 2008, published 2011).

Assays:
[1] = n-octanol/pH 7.4 buffer

Cc1cnc(NC(=O)C2=C(O)c3ccccc3S(=O)(=O)N2C)s1 [Meloxicam, 4-hydroxy-2-methyl-N-(5-methyl-2-thiazolyl)-2H-1,2-benzothiazine-3-carboxamide-1,1-dioxide]
Solubility in methanol (methanol): very slightly soluble in methanol | Solubility in strong acids and bases (strong acids and bases, compared with water): higher solubility observed in strong acids and bases | Solubility in water: practically insoluble in water | Apparent partition coefficient [1]: 0.1

O=C(O)c1cccnc1 [Niacin, 3-pyridinecarboxylic acid]
Solubility in water: very soluble in water
